Measured values taken from PubChem BioAssay (NCI).
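Results reflect a 48-hour exposure of cells in 96-well plates to compound at five concentrations. TGI: concentration producing complete growth inhibition.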

Tests used:
Test in all cases: inhibition of tumour cell growth, NCI panel, 48 h
SK-MEL-5 melanoma = tested on: SK-MEL-5 melanoma
MDA-N = tested on: MDA-N
CAKI-1 renal = tested on: CAKI-1 renal
HT29 colon = tested on: HT29 colon
SF-539 CNS = tested on: SF-539 CNS
UACC-257 melanoma = tested on: UACC-257 melanoma
PC-3 prostate = tested on: PC-3 prostate
HL-60(TB) leukemia = tested on: HL-60(TB) leukemia
MOLT-4 leukemia = tested on: MOLT-4 leukemia
MDA-MB-231 breast = tested on: MDA-MB-231 breast
SK-MEL-28 melanoma = tested on: SK-MEL-28 melanoma
HOP-62 NSCLC = tested on: HOP-62 NSCLC

| Compound | TGI (SK-MEL-5 melanoma) [µM] | TGI (MDA-N) [µM] | TGI (CAKI-1 renal) [µM] | TGI (HT29 colon) [µM] | TGI (SF-539 CNS) [µM] | TGI (UACC-257 melanoma) [µM] | TGI (PC-3 prostate) [µM] | TGI (HL-60(TB) leukemia) [µM] | TGI (MOLT-4 leukemia) [µM] | TGI (MDA-MB-231 breast) [µM] | TGI (SK-MEL-28 melanoma) [µM] | TGI (HOP-62 NSCLC) [µM] |
| --- | --- | --- | --- | --- | --- | --- | --- | --- | --- | --- | --- | --- |
| Brc1ccc(N=Nc2ccc3ccccc3n2)cc1 | > 100 | > 100 | 47 | > 100 | 55.2 | > 100 | > 100 | > 100 |  |  |  |  |
| CCOC(=O)CNC(=O)CNC(=O)CNC(=O)CNNc1c(OCc2ccccc2)c(=O)c1=O | > 100 | > 100 | > 100 | > 100 |  | > 100 | > 100 |  | > 100 | > 100 | > 100 | > 100 |
| CC(=O)c1c2c(cc3c1CC1(C3)Cc3cc4c(c(C(C)=O)c3C1)CCCC4)CCCC2 | 35.4 | > 100 |  | > 100 | > 100 | > 100 | > 100 | 40 | 76.5 | > 100 |  | > 100 |
| CC(CC(C)[C@H]1CCC2[C@H]3C(CC(=O)[C@@]21C)[C@@]1(C)CCC(O)C[C@H]1C[C@@H]3O)C(=O)O (some centres not stated) |  | > 100 | > 100 | > 100 | > 100 | > 100 | > 100 | > 100 | > 100 | > 100 | > 100 | > 100 |
| COC(=O)/C=C1/OC(c2ccc(C)cc2C)=CC1=O | 38.2 | 36.4 | 34.5 | 18.8 | 33 |  | 34.9 | > 100 | > 100 | 27.5 | 36.3 | 61.2 |
| Cc1ccc2nc(-c3ccc(-c4nc5ccc(C)cc5o4)c(O)c3)oc2c1 | > 100 | > 100 |  |  | > 100 |  | > 100 | > 100 | > 100 | > 100 | > 100 | > 100 |
| CN1C(=O)C(C#N)C2C[C@@]1(C)Oc1ccccc12 (some centres not stated) | > 100 | > 100 | > 100 | > 100 |  | > 100 | > 100 | > 100 | > 100 | > 100 | > 100 | > 100 |
| O=C(/C=C/c1ccccc1Br)c1ccccc1 | 22.6 | 18.4 | 8.37 | 9.42 | 15.6 | 24.1 | 23.5 | 3.07 |  | 27.5 | 15.8 | 26.2 |
| CCOC(=O)C1=C(c2ccccc2)NC(c2ccccc2)=C(C(=O)OCC)c2c1c(=O)cc[nH]c2=O |  |  | > 100 | > 100 | > 100 | > 100 |  | > 100 | > 100 |  | > 100 | > 100 |
| COc1ccc(-c2cc(=O)c3ccc(F)cc3[nH]2)cc1 | > 100 |  |  | > 100 | > 100 | > 100 |  | > 100 | > 100 |  | > 100 | > 100 |
